# Columns and labels:
# [1] = test system: HaCaT non-tumorigenic human keratinocytes; assay: MTT cytotoxicity assay, HaCaT; assay type: cell-based; conditions: 72 h, read-out: IC50 (95% Confidence Interval), HaCaT
# Protocol: (§1) The cytotoxic activity of the tested compounds was evaluated on non-tumorigenic human keratinocytes (HaCaT, #300493), skin melanoma malignant cells with BRAF V600E mutation (A-375, #300110), and skin epidermoid carcinoma cells (A-431, #300112), all purchased from CLS Cell Lines Service (Eppelheim, Germany). The cell lines were maintained in DMEM (#DMEM-HPA, Capricorn®, Ebsdorfergrund, Germany) supplemented with 10% fetal bovine serum (#FBS-HI-12A, Capricorn®, Ebsdorfergrund, Germany) and 4 mM L-glutamine (#G7513, Merck (Sigma-Aldrich), Germany) and incubated under standard conditions (5% CO2, 37 °C, 90%-95% humidity). The experiments were performed between passages 4 and 15 whereby the cells were sub-cultured every 4th day by splitting 1:8, according to the protocol of the biobank. Briefly, the cell cultures were rinsed with PBS without calcium and magnesium (PBS, #D8537, Merck (Sigma-Aldrich), Germany) and incubated for 8-10 min with accutase (#ACC-1B, Capricorn®, Ebsdorfergrund, Germany) as a detachment agent. After centrifugation, the cells were counted with trypan blue (0.4% solution, #T8154, Merck (Sigma-Aldrich), Germany). The antiproliferative effects of SilA, SilB, […], and DHSilB were tested using the MTT-dye (3-(4,5-dimethylthiazol-2-yl)-2,5-diphenyltetrazolium bromide) assay according to ISO 10993-5-2009, Annex C [26]. Briefly, the cells were seeded in 96-well plates at a density of 0.1 × 10^6/mL, incubated for 24 h at 37 °C (5% CO2), and treated with ten concentrations of the compounds ranging from 3.9 to 1000 μM in twofold serial dilutions. After 72 h, the MTT-dye (#M5655-1G, Merck (Sigma-Aldrich), Germany) was added to each sample at a final concentration of 0.05 mg/mL and the plates were incubated for 2 h at 37 °C (5% CO2). The supernatant was aspirated, and the formazan crystals formed as a product of the enzymatic MTT reduction were dissolved in 2-propranol (#33539, Merck (Sigma-Aldrich), Germany) supplemented with 5% formic acid (#300415, […]/Neuber, Sofia, Bulgaria). The absorbance of the product was measured at 550 nm (reference filter 690 nm) on an ELISA Reader BioTek ELx800 (BioTek). The experiments for evaluation of the BRAF inhibition and cytotoxicity were performed in triplicate. The IC50 values were calculated by the BfROpenLab's non-linear regression nodes in the KNIME analytics platform with the constant slope model.
# [2] = test system: A-431 skin epidermoid carcinoma cells; assay: MTT cytotoxicity assay, A-431; assay type: cell-based; conditions: Homo sapiens, 72 h, read-out: IC50 (95% Confidence Interval), A-431
# Protocol: as §1
# [3] = target: T1, BRAF V600E kinase (Homo sapiens, UniProt P15056, V600E); assay: BRAF (V600E) Kinase Assay Kit, Kinase-Glo luminescence; assay type: biochemical; conditions: 45 min at 30 °C
# T1 construct: purchased BPS Bioscience #48688
# Protocol: The activities of silybins and dehydrosilybins were tested using a commercial BRAF (V600E) (serine/threonine-protein kinase B-raf, V600E mutant) Kinase Assay Kit (#48688, BPS Bioscience, San Diego, CA, USA). Briefly, the BRAF (V600E) enzyme was incubated for 45 min at 30 °C with five different concentrations of each tested compound in logarithmic dilutions (1000, 100, 10, 1, and 0.1 µM). The reaction mixture was prepared following the instructions of the producer. The luminescence of the product of the enzyme activity was measured with the Kinase-Glo MAX Kit (#V6071, Promega, Madison, WI, USA) at a microplate luminometer (Synergy Multi-Mode Reader, BioTek, Winooski, VT, USA). Higher luminescent signal corresponded to […] enzyme activity. […] The reaction mixture without the test inhibitor represented the positive control, whereas the mixture without the test inhibitor and without the enzyme was used as blank.
# The experiments for evaluation of the BRAF inhibition and cytotoxicity were performed in triplicate. The IC50 values were calculated by the BfROpenLab’s non-linear regression nodes in the KNIME analytics platform with the constant slope model.
# [4] = target: T2, Human Myc-DDK-tagged SMO in HEK293T cells (Homo sapiens, UniProt Q99835); assay: BODIPY-Cyclopamine binding (displacement) assay; conditions: BC 5 nM, 2 h at 37 °C
# T2 construct: Myc; DDK (FLAG); expressed in transfected cells; host or cells: HEK293T
# Protocol: Human Myc-DDK-tagged SMO or empty vector was transfected in HEK293T cells. Cells were washed in phosphate-buffered saline (PBS) supplemented with 0.5% fetal bovine serum, fixed in 4% paraformaldehyde in PBS for 10 min, and incubated for 2 h at 37 °C, both in the same medium supplemented with BODIPY-Cyclopamine (BioVision Inc., San Francisco, CA, USA) (BC, 5 nM) and the studied compounds. The cells were permeabilized with Triton X100 (Sigma-Aldrich, St. Louis, MO, USA) 0.2%, and Hoechst reagent was used for cell nuclei staining. Data were expressed as a percentage of BC incorporation observed with BC alone.
# To further investigate the binding properties of the selected compounds to the SMO receptor, we performed a displacement assay based on the use of BODIPY-Cyclopamine, which is known to interact with the binding site of SMO antagonists located within the heptahelical bundle of the receptor. To this aim, HEK293T cells were transiently transfected for expression of SMO and then incubated with BC in the presence or absence of increased amounts of DHSilA or DHSilAB.
# [5] = test system: A-375 skin melanoma malignant cells with BRAF V600E mutation; assay: MTT cytotoxicity assay, A-375; assay type: cell-based; conditions: Homo sapiens, 72 h, read-out: IC50 (95% Confidence Interval), A-375
# Protocol: as §1
# [6] = test system: Hedgehog signaling pathway in NIH3T3 Shh-Light II cells; assay: HH-dependent (Gli-responsive) luciferase reporter assay; assay type: cell-based; conditions: SAG 200 nM, 48 h; for HH inhibitory activity (in words): maximum concentration of 30 μM
# Protocol: The luciferase assay was carried out in NIH3T3 Shh-Light II cells, stably incorporating a Gli-responsive luciferase reporter and the pRL-TK Renilla, treated with SAG (SMO Agonist, 200 nM, Alexis Biochemicals Farmingdale, NY, USA) and the selected compounds for 48 h. Luciferases activities from P. pyralisand and R. reniformis were assayed with a dual-luciferase assay system, according to the manufacturer’s instructions (Biotium Inc., Hayward, CA, USA). The results were expressed as a P. pyralisand/R. reniformis luciferase ratio and represent the mean ± S.D. of three experiments, each performed in triplicate.
# With respect to the SMO receptor, the HH inhibitory activity of the compounds, alone and in a racemate, was investigated in a luciferase reporter assay, which is widely used for characterizing HH inhibitors. The HH inhibitory activity of synthesized molecules was evaluated in NIH3T3 Shh Light II cells, stably incorporating a Gli-responsive firefly luciferase treated with the synthetic SMO agonist SAG [32], alone and in combination with the tested compounds.
# T1 sequence (P15056 whole entry V600E): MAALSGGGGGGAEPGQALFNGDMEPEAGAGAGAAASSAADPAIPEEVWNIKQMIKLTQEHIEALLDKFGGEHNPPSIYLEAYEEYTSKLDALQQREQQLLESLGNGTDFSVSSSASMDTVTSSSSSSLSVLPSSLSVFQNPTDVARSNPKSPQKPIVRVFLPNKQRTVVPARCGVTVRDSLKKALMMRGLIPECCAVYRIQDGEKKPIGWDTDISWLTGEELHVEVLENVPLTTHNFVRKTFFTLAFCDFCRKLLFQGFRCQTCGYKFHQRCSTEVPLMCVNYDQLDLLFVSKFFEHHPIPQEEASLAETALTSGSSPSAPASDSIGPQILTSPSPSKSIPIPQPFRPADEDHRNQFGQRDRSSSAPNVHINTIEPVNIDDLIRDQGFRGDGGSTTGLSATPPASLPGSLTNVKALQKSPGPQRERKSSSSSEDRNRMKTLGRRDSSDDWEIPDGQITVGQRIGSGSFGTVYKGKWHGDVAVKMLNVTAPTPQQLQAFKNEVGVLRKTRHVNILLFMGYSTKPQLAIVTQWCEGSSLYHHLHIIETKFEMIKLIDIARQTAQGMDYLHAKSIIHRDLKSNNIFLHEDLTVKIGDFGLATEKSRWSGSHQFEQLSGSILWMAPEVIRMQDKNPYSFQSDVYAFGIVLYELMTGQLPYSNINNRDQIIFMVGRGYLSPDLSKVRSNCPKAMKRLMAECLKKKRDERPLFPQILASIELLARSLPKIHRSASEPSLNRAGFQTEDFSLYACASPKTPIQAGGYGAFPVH
# T2 sequence (Q99835 28-787): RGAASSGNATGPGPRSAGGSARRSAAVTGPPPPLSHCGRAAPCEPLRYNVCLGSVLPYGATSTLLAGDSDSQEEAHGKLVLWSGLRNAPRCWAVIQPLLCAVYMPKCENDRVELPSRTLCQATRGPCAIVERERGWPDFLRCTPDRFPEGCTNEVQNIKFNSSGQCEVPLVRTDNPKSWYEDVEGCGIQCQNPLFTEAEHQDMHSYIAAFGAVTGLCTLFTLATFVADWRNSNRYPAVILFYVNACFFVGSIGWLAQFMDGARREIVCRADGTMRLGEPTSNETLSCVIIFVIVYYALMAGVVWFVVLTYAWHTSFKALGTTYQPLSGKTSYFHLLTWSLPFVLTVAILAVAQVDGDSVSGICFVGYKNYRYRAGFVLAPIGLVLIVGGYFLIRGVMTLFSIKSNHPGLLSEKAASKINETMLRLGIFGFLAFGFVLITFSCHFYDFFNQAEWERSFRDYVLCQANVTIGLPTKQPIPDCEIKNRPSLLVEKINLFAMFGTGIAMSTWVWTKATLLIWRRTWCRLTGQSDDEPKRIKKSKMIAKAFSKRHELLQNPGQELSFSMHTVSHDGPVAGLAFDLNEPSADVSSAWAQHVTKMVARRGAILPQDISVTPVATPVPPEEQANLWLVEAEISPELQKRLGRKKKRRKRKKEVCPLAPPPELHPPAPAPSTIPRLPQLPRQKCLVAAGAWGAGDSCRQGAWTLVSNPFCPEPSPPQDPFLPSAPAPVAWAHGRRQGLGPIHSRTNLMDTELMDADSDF
SMILES,IC50 [1] [µM],IC50 [2] [µM],IC50 [3] [µM],Inhibition of BODIPY-Cyclopamine (BC) binding to cells expressing SMO [4],IC50 [5] [µM],HH inhibitory activity (in words) [6],"IC50 ([6]; read-out: IC50, HH inhibitory activity) [µM]"
"COc1cc([C@H]2Oc3cc(-c4oc5cc(O)cc(O)c5c(=O)c4O)ccc3O[C@@H]2CO)ccc1O [DHSilA, 2,3-dehydrosilybin A]",231,97,70.6,inhibited BC binding to cells expressing SMO in a dose-dependent manner,83,high activity,5 to 10
"COc1cc([C@H]2Oc3cc([C@H]4Oc5cc(O)cc(O)c5C(=O)[C@@H]4O)ccc3O[C@@H]2CO)ccc1O [SilA, silybin A]",120,126,104,–,97,mild activity,–
"COc1cc([C@@H]2Oc3cc([C@H]4Oc5cc(O)cc(O)c5C(=O)[C@@H]4O)ccc3O[C@H]2CO)ccc1O [SilB, silybin B]",150,166,73.9,–,120,mild activity,–
"COc1cc([C@@H]2Oc3cc(-c4oc5cc(O)cc(O)c5c(=O)c4O)ccc3O[C@H]2CO)ccc1O [DHSilB, 2,3-dehydrosilybin B]",164,130,24.9,–,86,inactive,–
